From ChEMBL document CHEMBL5620359, “Discovery of 2,5-disubstituted furan derivatives featuring a benzamide motif for overcoming P-glycoprotein mediated multidrug resistance in MCF-7/ADR cell” (Eur J Med Chem, 2023)

What was measured:
Assay type in all cases: functional
NCI/ADR-RES [1] = test: Reversal activity against doxorubicin-mediated resistance in human MCF7ADR cells assessed as reversal fold by measuring ratio of doxorubicin IC50 to doxorubicin IC50 in presence of test compound at 5 uM incubated for 48 hrs by CCK8 assay
NCI/ADR-RES [2] = test: Cytotoxicity against human MCF7ADR cells assessed as cell survival rate at 5 uM incubated for 48 hrs by CCK8 assay relative to control
MCF7 = test: Cytotoxicity against human MCF7 cells assessed as cell survival rate at 5 uM incubated for 48 hrs by CCK8 assay relative to control
NCI/ADR-RES [3] = test: Reversal activity against doxorubicin-mediated resistance in human MCF7ADR cells assessed as reversal fold by measuring ratio of doxorubicin IC50 to doxorubicin IC50 in presence of test compound at 1 uM incubated for 48 hrs by CCK8 assay

Row | SMILES | fold change (FC) (NCI/ADR-RES [1]) | Activity (NCI/ADR-RES [2]) | Activity (MCF7) | fold change (FC) (NCI/ADR-RES [3])
1 | COc1cc2c(cc1OC)CN(C(=O)c1ccc(-c3cccc(NC(=O)c4ccc([N+](=O)[O-])cc4)c3)o1)CC2 | 32.6 | 99.7% | 99.8% | 
2 | COc1cc2c(cc1OC)CN(C(=O)c1ccc(-c3cccc(NC(=O)c4cccc([N+](=O)[O-])c4)c3)o1)CC2 | 23 | 76.5% | 69.6% | 
3 | COc1cc2c(cc1OC)CN(C(=O)c1ccc(-c3ccc(NC(=O)c4ccccc4)cc3)o1)CC2 | 221.1 | 73.5% |  | 5.3
4 | COc1cc2c(cc1OC)CN(C(=O)c1ccc(-c3ccc(NC(=O)c4ccc(Cl)cc4)cc3)o1)CC2 | 124 | 79.8% | 50.1% | 
5 | COc1cc2c(cc1OC)CN(C(=O)c1ccc(-c3ccc(NC(=O)c4ccccc4OC)cc3)o1)CC2 | 24.2 | 98.6% | 99.7% | 
6 | COc1ccc(C(=O)Nc2cccc(-c3ccc(C(=O)N4CCc5cc(OC)c(OC)cc5C4)o3)c2)c(OC)c1 | 17.5 | 64.9% | 84.7% | 
7 | COc1cc(OC)cc(C(=O)Nc2cccc(-c3ccc(C(=O)N4CCc5cc(OC)c(OC)cc5C4)o3)c2)c1 | 30.1 | 73.9% | 63% | 
8 | COc1cc2c(cc1OC)CN(C(=O)c1ccc(-c3ccc(NC(=O)c4ccccc4Cl)cc3)o1)CC2 | 66.9 | 82.5% | 65.5% | 
9 | COc1cc2c(cc1OC)CN(C(=O)c1ccc(-c3ccc(NC(=O)c4ccc(Br)cc4)cc3)o1)CC2 | 48.4 | 96.3% | 97.2% | 
10 | COc1cc2c(cc1OC)CN(C(=O)c1ccc(-c3cccc(NC(=O)c4cccc(Cl)c4)c3)o1)CC2 | 41 | 97.5% | 85.3% | 
11 | COc1cc2c(cc1OC)CN(C(=O)c1ccc(-c3ccc(NC(=O)c4cccc(Cl)c4)cc3)o1)CC2 | 267.6 | 83.3% | 74.8% | 
12 | COc1ccc(NC(=O)Nc2ccc(-c3ccc(C(=O)N4CCc5cc(OC)c(OC)cc5C4)o3)cc2)cc1 |  | 98.2% | 99.2% | 
13 | C/C=C/C[C@@H](C)[C@@H](O)[C@H]1C(=O)N[C@@H](CC)C(=O)N(C)CC(=O)N(C)[C@@H](CC(C)C)C(=O)N[C@@H](C(C)C)C(=O)N(C)[C@@H](CC(C)C)C(=O)N[C@@H](C)C(=O)N[C@H](C)C(=O)N(C)[C@@H](CC(C)C)C(=O)N(C)[C@@H](CC(C)C)C(=O)N(C)[C@@H](C(C)C)C(=O)N1C [CYCLOSPORINE] | 59.1 | 89.4% | 87.5% | 
14 | COc1cc2c(cc1OC)CN(C(=O)c1ccc(-c3ccc(NC(=O)c4cccc([N+](=O)[O-])c4)cc3)o1)CC2 | 53.5 | 71% | 79.2% | 
15 | COc1cc2c(cc1OC)CN(C(=O)c1ccc(-c3ccc(NC(=O)c4ccc(C(C)(C)C)cc4)cc3)o1)CC2 | 164 | 61.1% | 44.9% | 
16 | COc1cc2c(cc1OC)CN(C(=O)c1ccc(-c3ccc(NC(=O)c4cccc(F)c4)cc3)o1)CC2 | 19.6 | 78.2% | 75.1% | 
17 | COc1cccc(C(=O)Nc2cccc(-c3ccc(C(=O)N4CCc5cc(OC)c(OC)cc5C4)o3)c2)c1 | 59.8 | 75% | 59.4% | 
18 | COc1cc2c(cc1OC)CN(C(=O)c1ccc(-c3cccc(NC(=O)c4ccco4)c3)o1)CC2 | 30.4 | 75.9% |  | 5.2
19 | COc1ccc(C(=O)Nc2cccc(-c3ccc(C(=O)N4CCc5cc(OC)c(OC)cc5C4)o3)c2)cc1 | 72.6 | 62.1% | 32.4% | 
20 | COc1cccc(C(=O)Nc2ccc(-c3ccc(C(=O)N4CCc5cc(OC)c(OC)cc5C4)o3)cc2)c1 | 97.8 | 77.1% | 81.2% | 
21 | COc1cc2c(cc1OC)CN(C(=O)c1ccc(-c3cccc(NC(=O)c4ccc(Cl)cc4)c3)o1)CC2 | 18 | 85.5% | 88.1% | 
22 | COc1cc2c(cc1OC)CN(C(=O)c1ccc(-c3ccc(NC(=O)c4ccc([N+](=O)[O-])cc4)cc3)o1)CC2 | 50.9 | 82.2% | 68.9% | 
23 | COc1ccc(S(=O)(=O)N(c2ccc(-c3ccc(C(=O)N4CCc5cc(OC)c(OC)cc5C4)o3)cc2)S(=O)(=O)c2ccc(OC)cc2)cc1 | 21.9 | 94.6% | 92.6% | 
24 | COc1cc2c(cc1OC)CN(C(=O)c1ccc(-c3ccccc3NC(=O)c3ccc([N+](=O)[O-])cc3)o1)CC2 | 24.3 | 99.6% | 86.2% | 
25 | COc1cc2c(cc1OC)CN(C(=O)c1ccc(-c3ccccc3NC(=O)c3ccccc3OC)o1)CC2 | 20.8 | 74.5% | 81.2% | 

Row | SMILES | fold change (FC) (NCI/ADR-RES [1]) | Activity (NCI/ADR-RES [2]) | Activity (MCF7) | fold change (FC) (NCI/ADR-RES [3])
26 | COc1cc2c(cc1OC)CN(C(=O)c1ccc(-c3ccc(NC(=O)c4ccccc4[N+](=O)[O-])cc3)o1)CC2 | 18.6 | 99.5% | 97.8% | 
27 | COc1cccc(C(=O)Nc2ccccc2-c2ccc(C(=O)N3CCc4cc(OC)c(OC)cc4C3)o2)c1 | 26.6 | 83% | 81.2% | 
28 | COc1ccc(CCN(C)CCCC(C#N)(c2ccc(OC)c(OC)c2)C(C)C)cc1OC (centres undefined) |  | 75% | 99.6% | 
29 | COc1cc2c(cc1OC)CN(C(=O)c1ccc(-c3cccc(NC(=O)c4ccccc4Cl)c3)o1)CC2 | 32.8 | 80.8% | 67.3% | 
30 | COc1cc2c(cc1OC)CN(C(=O)c1ccc(-c3ccc(NC(=O)c4ccc(-c5ccccc5)cc4)cc3)o1)CC2 | 17.1 | 95% | 98.7% | 
31 | COc1cc2c(cc1OC)CN(C(=O)c1ccc(-c3ccccc3NC(=O)c3ccccc3)o1)CC2 | 7.5 | 70.9% |  | 
32 | COc1cc2c(cc1OC)CN(C(=O)c1ccc(-c3ccc(NC(=O)c4ccc(F)cc4)cc3)o1)CC2 | 53.5 | 70.6% | 53.6% | 
33 | COc1cc2c(cc1OC)CN(C(=O)c1ccc(-c3ccc(NC(=O)c4ccc(C#N)cc4)cc3)o1)CC2 | 41 | 56.7% | 85.6% | 
34 | COc1cc2c(cc1OC)CN(C(=O)c1ccc(-c3cccc(NC(=O)c4ccccc4OC)c3)o1)CC2 | 44.2 | 65% | 53.6% | 
35 | COc1ccc(-c2ccc(C(=O)N3CCc4cc(OC)c(OC)cc4C3)o2)cc1 | 9.1 | 94.1% |  | 
36 | COc1cc2c(cc1OC)CN(C(=O)c1ccc(-c3cccc(NC(=O)c4ccccc4)c3)o1)CC2 | 45.8 | 76.1% |  | 
37 | COc1cc2c(cc1OC)CN(CCc1ccc(NC(=O)c3cc(OC)c(OC)cc3NC(=O)c3cnc4ccccc4c3)cc1)CC2 | 221.1 | 46.7% | 80.7% | 
38 | COc1cc2c(cc1OC)CN(C(=O)c1ccc(-c3cccc(NC(=O)c4cccs4)c3)o1)CC2 | 46.6 | 61.4% |  | 
39 | COc1cc2c(cc1OC)CN(C(=O)c1ccc(-c3cccc(NC(=O)c4ccccc4[N+](=O)[O-])c3)o1)CC2 | 19.5 | 62.6% | 73.4% | 
40 | COc1cc2c(cc1OC)CN(C(=O)c1ccc(-c3ccccc3NC(=O)c3ccccc3Cl)o1)CC2 | 29.2 | 96.3% | 66.5% | 
41 | COc1cc(OC)cc(C(=O)Nc2ccccc2-c2ccc(C(=O)N3CCc4cc(OC)c(OC)cc4C3)o2)c1 | 13.1 | 97.3% | 70.5% | 
42 | COc1cc2c(cc1OC)CN(C(=O)c1ccc(-c3ccccc3NC(=O)c3ccc(Cl)cc3)o1)CC2 | 24 | 84.1% | 83% | 
43 | COc1cc2c(cc1OC)CN(C(=O)c1ccc(-c3ccccc3NC(=O)c3cccc(Cl)c3)o1)CC2 | 45 | 80.4% | 53% | 
44 | COc1cc2c(cc1OC)CN(C(=O)c1ccc(-c3ccc(NC(=O)c4ccc(OC(F)(F)F)cc4)cc3)o1)CC2 | 118.3 | 72.8% | 61.3% | 
45 | COc1cc2c(cc1OC)CN(C(=O)c1ccc(-c3ccc(NC(=O)c4ccccc4F)cc3)o1)CC2 | 11 | 99.2% | 77.1% | 
46 | COc1ccc(CNc2ccc(-c3ccc(C(=O)N4CCc5cc(OC)c(OC)cc5C4)o3)cc2)cc1 | 5.2 | 98.2% | 99.7% | 
47 | COc1cc2c(cc1OC)CN(C(=O)c1ccc(-c3ccc(NC(=O)c4ccc(N(C)C)cc4)cc3)o1)CC2 | 40 | 71.8% | 98.6% | 
48 | COc1cc2c(cc1OC)CN(C(=O)c1ccc(-c3ccc(NC(=O)c4c(F)c(F)c(F)c(F)c4F)cc3)o1)CC2 | 45.4 | 98.2% | 92.4% | 
49 | COc1ccc(C(=O)Nc2ccc(-c3ccc(C(=O)N4CCc5cc(OC)c(OC)cc5C4)o3)cc2)c(OC)c1 | 36.8 | 66.7% | 63.7% | 
50 | COc1cc2c(cc1OC)CN(C(=O)c1ccc(-c3ccccc3NC(=O)c3cccc([N+](=O)[O-])c3)o1)CC2 | 6.1 | 66.2% | 67.5% | 
